Experimental data: article PMC5224920, “Assessing the mechanism and therapeutic potential of modulators of the human Mediator complex-associated protein kinases” (eLife, 2016)

Legend:
p-STAT1^SER727 = test: p-STAT1 SER727 in rat spleen in toleration study; format: in vivo; conditions: 6 hr post-treatment, all doses tested
Text: Our aim was to determine if there was a therapeutic window for the compounds, using PK/PD and efficacy data determined in our mouse models as a guide. Following daily doses of compound 3 or 4 for 14 days in rats we detected significant, adverse alterations in multiple organ systems and tissues (Table 1). […] Other adverse pathomorphological findings included necrotic and apoptotic cell lesions in the exocrine pancreas, gastrointestinal mucosa (stomach and duodenum), male reproductive tract (Figure 7), mammary gland, skin (hair follicle), heart (valvular interstitial cells) and lymphatic tissues (thymus, spleen, lymph nodes). Proliferative lesions were found in the lungs (bronchiolar epithelium and smooth muscle cells), liver (bile ducts and smooth muscle cells of hepatic arteries), thymus (epithelium free areas), mammary gland, male reproductive system and heart (valvular interstitial cells) (Table 1).
Figure 7. Examples of degenerative and proliferative lesions in rats treated with CDK8/19 ligands 3 or 4. (A) Intact proliferative zone in the bone growth plate of a control rat. (B) Dysplastic proliferative zone, showing disturbance of regular endochondrial ossification, from a rat treated with 20 mg/kg 3. Scale bar in A and B = 100 µm. (C) Intact epididymides, with epididymal cells, isolated from a control rat. […]

Caco-2 permeability = format: in vitro ADME; conditions: human
RKO = test: 14 d colony growth assay, RKO; format: cell-based, human; conditions: 350 nM, mean (range), n = 2
GSK3α = GSK3α (Homo sapiens, UniProt P49840); test: Off-target kinase IC50, GSK3α; format: biochemical
GSK3α, sequence (P49840 whole entry, species assumed): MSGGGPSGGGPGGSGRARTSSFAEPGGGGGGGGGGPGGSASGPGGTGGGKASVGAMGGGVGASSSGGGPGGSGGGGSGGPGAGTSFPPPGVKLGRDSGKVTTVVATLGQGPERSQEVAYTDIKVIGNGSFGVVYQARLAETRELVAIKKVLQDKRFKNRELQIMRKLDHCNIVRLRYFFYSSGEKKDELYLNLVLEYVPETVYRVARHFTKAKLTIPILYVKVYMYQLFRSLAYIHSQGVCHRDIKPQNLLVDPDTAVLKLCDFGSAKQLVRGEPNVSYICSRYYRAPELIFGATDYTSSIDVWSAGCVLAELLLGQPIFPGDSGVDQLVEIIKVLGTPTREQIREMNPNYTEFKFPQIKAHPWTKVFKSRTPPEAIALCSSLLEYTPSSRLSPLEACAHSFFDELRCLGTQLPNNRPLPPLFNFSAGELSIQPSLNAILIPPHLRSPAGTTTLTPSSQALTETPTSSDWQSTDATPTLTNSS

SMILES | Inhibition of STAT1^SER727 phosphorylation (p-STAT1^SER727) | efflux ratio (Caco-2 permeability) | 14 d colony growth (relative to control) (RKO) | IC50 (GSK3α)
Cn1ncc2cc(-c3cnc(N)c(Cl)c3N3CCC4(CCNC4=O)CC3)ccc21 [CMPD 3] | 80% | – | – | –
Cc1n[nH]c2ncc(C(=O)N3CCC[C@H]3c3ccc(Cl)cc3)cc12 [CMPD 4] | – | 1.49 | 0.98 (0.07) | 691 nM
